Assays:
CL6.7 cells = assay: Cell proliferation assay (BrdU) in OH-Tam-resistant CL6.7 cells; format: cell-based; details: 200 nM OH-Tam
Experimental: (§1) FIG. 13: Endocrine resistance is reversed in the presence of an siRNA-ZNF217 in OH-Tam-resistant CL6.7 cells. Total protein extracts from cell lines were analyzed by Western blotting with an anti-ZNF217. Expression of α-tubulin was used as an invariant control. (A) Western-blot analysis of ZNF217 in transfected MVLN and CL6.7 cells with either scrambled RNA or with an siRNA-ZNF217. (B) Cell proliferation (BrdU test) of transfected MVLN and CL6.7 cells with either scrambled RNA or siRNA-ZNF217, in the presence or the absence of 200 nM OH-Tam. This assay was performed in steroid-free medium. P-value (Student's t-test) was considered as significant when P<0.05.
(§2) MCF7 and MDA-MB-231 breast cancer cells were purchased from ATCC and grown according to recommendations in DMEM medium supplemented with 10% fetal bovine serum (Invitrogen, Cergy Pontoise, Paris). S30 cells and their MDA-MB-231 control cells have been previously described (Levenson et al., 2003). The cellular model of endocrine resistance (MVLN and CL6.7 cells) have been previously established and described (Demirpence et al., 1993).
(§3) Proliferating cells were analyzed using the Cell Proliferation ELISA, BrdU (colorimetric) Kit (Roche, Meylan, France). […]

MVLN cells = assay: Cell proliferation assay (BrdU) in MVLN cells; format: cell-based; details: 200 nM OH-Tam
Experimental: as §1, §2, §3

## CC/C(=C(\c1ccc(O)cc1)c1ccc(OCCN(C)C)cc1)c1ccccc1 [OH-Tam, OH-Tamoxifen]
CL6.7 cells; CL6.7 cells (OH-Tam-resistant), steroid-free medium
  effect of OH-Tam exposure on cell proliferation: strong stimulation of CL6.7 cell proliferation
CL6.7 cells; CL6.7 cells, OH-Tam exposure combined with ZNF217 knocking-out (siRNA), P<10^-5
  inhibition of cell proliferation: 35%
MVLN cells; MVLN cells (OH-Tam-sensitive), steroid-free medium
  effect of OH-Tam exposure on cell proliferation: cytostatic activity
MVLN cells; MVLN cells, OH-Tam exposure combined with ZNF217 knockdown (siRNA), P=0.001
  sensitivity to endocrine therapy (cell proliferation): increased sensitivity to endocrine therapy
